For one assay, the system named is RSV-A2-GFP virus. Description: microbe, parasite or virus in culture. The format is cell-based, Human Respiratory Syncytial Virus. The method in brief: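 IC50 (GFP-expressing cell counts by Acumen imaging) and CC50 (same-well CellTiter-Glo) were obtained by 4-parameter logistic fitting. Compounds were tested in 10-point 3-fold series for 96 h at 37° C, 5% CO2. Thawed Calu-1 ARF cells were infected at MOI 1.2 with GFP-reporter RSV-A2 in 2% FBS DMEM.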

Another assay concerns hMPV-GFP virus. Description: microbe, parasite or virus in culture. It is filed as cell-based, human metapneumovirus. The method in brief: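 Antiviral IC50 was derived from imaging counts of GFP-expressing cells, with CC50 from a same-well CellTiter-Glo read, both by 4-parameter logistic fitting. VERO cells plus hMPV-GFP (MOI 1.25) were exposed 48 h at 37 °C to 10-point 3-fold compound dilutions (typical final 40,300–2 nM).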

[1] abbreviates: Calu-1 cells infected with RSV-A2-GFP, 96 hrs, GFP-expressing cells counted, read-out: RSV EC50.
Where [2] appears, read: VERO cells infected with hMPV-GFP, 48 hrs, GFP-expressing cells counted, read-out: hMPV EC50.
[3] abbreviates: human respiratory syncytial virus, Calu-1, 96 h, read-out: RSV EC50, Calu-1 cells infected with RSV-A2-GFP, 96 hrs, GFP-expressing cells counted.
The mark [4] stands for this setting: human metapneumovirus, Vero, 48 h, read-out: hMPV EC50, VERO cells infected with hMPV-GFP, 48 hrs, GFP-expressing cells counted.

Where two headings read alike, the source gives them in different places.

For `Cc1nc(-c2ncccn2)sc1C(=O)N1C[C@@H]2[C@H](C1)[C@H]2Oc1cc(C(C)(C)N)cc(-c2ccc3c(c2)CCO3)n1` [Example 34, ((1R,5S,6s)-6-((4-(2-aminopropan-2-yl)-6-(2,3-dihydrobenzofuran-5-yl)pyridin-2-yl)oxy)-3-azabicyclo[3.1.0]hexan-3-yl)(4-methyl-2-(pyrimidin-2-yl)thiazol-5-yl)methanone], the EC50 (commonly the concentration that produces a half-maximal response) was < 10 nM with RSV-A2-GFP virus (setting [1]) and > 100 nM in the assay with hMPV-GFP virus (setting [2]).

As to `Cc1cc(-c2cc(C(C)(C)N)cc(O[C@H]3[C@@H]4CN(C(=O)c5sc(-c6ncccn6)nc5C)C[C@@H]43)n2)ccc1F` [Example 35, ((1R,5S,6s)-6-((4-(2-aminopropan-2-yl)-6-(4-fluoro-3-methylphenyl)pyridin-2-yl)oxy)-3-azabicyclo[3.1.0]hexan-3-yl)(4-methyl-2-(pyrimidin-2-yl)thiazol-5-yl)methanone], the EC50 was < 10 nM with RSV-A2-GFP virus (setting [1]) and > 100 nM in the assay with hMPV-GFP virus (setting [2]).

As for `Cc1nc(-c2ncccn2)sc1C(=O)N1C[C@@H]2[C@H](C1)[C@H]2Oc1cc(C(C)(C)N)cc(-c2ccc(C#N)c(F)c2)n1` [Example 36, 4-(4-(2-aminopropan-2-yl)-6-(((1R,5S,6s)-3-(4-methyl-2-(pyrimidin-2-yl)thiazole-5-carbonyl)-3-azabicyclo[3.1.0]hexan-6-yl)oxy)pyridin-2-yl)-2-fluorobenzonitrile], the EC50 with RSV-A2-GFP virus (setting [1]) is < 10 nM; in the assay with hMPV-GFP virus (setting [2]), 10 to 100 nM.

`Cc1ccc(-c2cc(C(C)(C)N)cc(O[C@H]3[C@@H]4CN(C(=O)c5sc(-c6ncccn6)nc5C)C[C@@H]43)n2)cc1F` [Example 37, ((1R,5S,6s)-6-((4-(2-aminopropan-2-yl)-6-(3-fluoro-4-methylphenyl)pyridin-2-yl)oxy)-3-azabicyclo[3.1.0]hexan-3-yl)(4-methyl-2-(pyrimidin-2-yl)thiazol-5-yl)methanone]: the EC50 is < 10 nM in the assay with RSV-A2-GFP virus (setting [1]) and 10 to 100 nM in the assay on hMPV-GFP virus (setting [2]).

Regarding `Cc1ccc(-c2cc(C(C)(C)N)cc(O[C@H]3[C@@H]4CN(C(=O)c5sc(-c6ncccn6)nc5C)C[C@@H]43)n2)c(F)c1` [Example 38, ((1R,5S,6s)-6-((4-(2-aminopropan-2-yl)-6-(2-fluoro-4-methylphenyl)pyridin-2-yl)oxy)-3-azabicyclo[3.1.0]hexan-3-yl)(4-methyl-2-(pyrimidin-2-yl)thiazol-5-yl)methanone], the figures for the EC50 in the assay with RSV-A2-GFP virus (setting [1]) and in the assay with hMPV-GFP virus (setting [2]) were < 10 nM and 10 to 100 nM, respectively.

Turning to `Cc1cc(F)ccc1-c1cc(C(C)(C)N)cc(O[C@H]2[C@@H]3CN(C(=O)c4sc(-c5ncccn5)nc4C)C[C@@H]32)n1` [Example 39, ((1R,5S,6s)-6-((4-(2-aminopropan-2-yl)-6-(4-fluoro-2-methylphenyl)pyridin-2-yl)oxy)-3-azabicyclo[3.1.0]hexan-3-yl)(4-methyl-2-(pyrimidin-2-yl)thiazol-5-yl)methanone], the EC50 in the assay with RSV-A2-GFP virus (setting [1]) was < 10 nM; in the assay on hMPV-GFP virus (setting [2]), 10 to 100 nM.

As to `Cc1cccc(-c2cc(C(C)(C)N)cc(O[C@H]3[C@@H]4CN(C(=O)c5sc(-c6ncccn6)nc5C)C[C@@H]43)n2)c1F` [Example 40, ((1R,5S,6s)-6-((4-(2-aminopropan-2-yl)-6-(2-fluoro-3-methylphenyl)pyridin-2-yl)oxy)-3-azabicyclo[3.1.0]hexan-3-yl)(4-methyl-2-(pyrimidin-2-yl)thiazol-5-yl)methanone], the values for the EC50 in the assay on RSV-A2-GFP virus (setting [1]) and in the assay with hMPV-GFP virus (setting [2]) were < 10 nM and > 100 nM, respectively.

Regarding `COc1cc(F)ccc1-c1cc(C(C)(C)N)cc(O[C@H]2[C@@H]3CN(C(=O)c4sc(-c5ncccn5)nc4C)C[C@@H]32)n1` [Example 41, ((1R,5S,6s)-6-((4-(2-aminopropan-2-yl)-6-(4-fluoro-2-methoxyphenyl)pyridin-2-yl)oxy)-3-azabicyclo[3.1.0]hexan-3-yl)(4-methyl-2-(pyrimidin-2-yl)thiazol-5-yl)methanone], the EC50 is < 10 nM in the assay on RSV-A2-GFP virus (setting [1]) and > 100 nM in the assay with hMPV-GFP virus (setting [2]).

Turning to `Cc1nc(-c2ncccn2)sc1C(=O)N1C[C@@H]2[C@H](C1)[C@H]2Oc1cc(C(C)(C)N)cc(-c2ccc(F)c3ccccc23)n1` [Example 42, ((1R,5S,6s)-6-((4-(2-aminopropan-2-yl)-6-(4-fluoronaphthalen-1-yl)pyridin-2-yl)oxy)-3-azabicyclo[3.1.0]hexan-3-yl)(4-methyl-2-(pyrimidin-2-yl)thiazol-5-yl)methanone], the EC50 in the assay on RSV-A2-GFP virus (setting [1]) was < 10 nM; in the assay on hMPV-GFP virus (setting [2]), 10 to 100 nM.

As to `Cc1nc(-c2ncccn2)sc1C(=O)N1C[C@@H]2[C@H](C1)[C@H]2Oc1cc(C(C)(C)N)cc(-c2cc3ccccc3[nH]2)n1` [Example 43, ((1R,5S,6s)-6-((4-(2-aminopropan-2-yl)-6-(1H-indol-2-yl)pyridin-2-yl)oxy)-3-azabicyclo[3.1.0]hexan-3-yl)(4-methyl-2-(pyrimidin-2-yl)thiazol-5-yl)methanone], the EC50 was < 10 nM with RSV-A2-GFP virus (setting [1]) and > 100 nM in the assay on hMPV-GFP virus (setting [2]).

For the compound `Cc1nc(-c2ncccn2)sc1C(=O)N1C[C@@H]2[C@H](C1)[C@H]2Oc1cc(C(C)(C)N)cc(-c2cc3ccccc3n2C)n1` [Example 44, ((1R,5S,6s)-6-((4-(2-aminopropan-2-yl)-6-(1-methyl-1H-indol-2-yl)pyridin-2-yl)oxy)-3-azabicyclo[3.1.0]hexan-3-yl)(4-methyl-2-(pyrimidin-2-yl)thiazol-5-yl)methanone], the figures for the EC50 in the assay on RSV-A2-GFP virus (setting [1]) and with hMPV-GFP virus (setting [2]) were < 10 nM and 10 to 100 nM, respectively.

For the compound `Cc1nc(-c2ncccn2)sc1C(=O)N1C[C@@H]2[C@H](C1)[C@H]2Oc1cc(C(C)(C)N)cc(C2=CCCCC2)n1` [Example 45, ((1R,5S,6s)-6-((4-(2-aminopropan-2-yl)-6-(cyclohex-1-en-1-yl)pyridin-2-yl)oxy)-3-azabicyclo[3.1.0]hexan-3-yl)(4-methyl-2-(pyrimidin-2-yl)thiazol-5-yl)methanone], the values for the EC50 in the assay with RSV-A2-GFP virus (setting [1]) and in the assay on hMPV-GFP virus (setting [2]) were < 10 nM and > 100 nM, respectively.

Consider `Cc1nc(-c2ncccn2)sc1C(=O)N1C[C@@H]2[C@H](C1)[C@H]2Oc1cc(C(C)(C)N)cc(C2=CCC3(CCC3)CC2)n1` [Example 48, ((1R,5S,6s)-6-((4-(2-aminopropan-2-yl)-6-(spiro[3.5]non-6-en-7-yl)pyridin-2-yl)oxy)-3-azabicyclo[3.1.0]hexan-3-yl)(4-methyl-2-(pyrimidin-2-yl)thiazol-5-yl)methanone], for which the EC50 in the assay on RSV-A2-GFP virus (setting [1]) is < 10 nM; in the assay with hMPV-GFP virus (setting [2]) it was > 100 nM.

On to `CC(C)(N)c1cc(O[C@H]2[C@@H]3CN(C(=O)c4sc(-c5ncccn5)nc4C(F)F)C[C@@H]32)nc(-c2ccc(F)cc2)c1` [Example 49, ((1R,5S,6s)-6-((4-(2-aminopropan-2-yl)-6-(4-fluorophenyl)pyridin-2-yl)oxy)-3-azabicyclo[3.1.0]hexan-3-yl)(4-(difluoromethyl)-2-(pyrimidin-2-yl)thiazol-5-yl)methanone], for which the EC50 in the assay with RSV-A2-GFP virus (setting [3]) is < 10 nM; in the assay on hMPV-GFP virus (setting [4]) it was 10 to 100 nM.

For `Cn1nc(-c2cccc(F)n2)cc1C(=O)N1C[C@@H]2[C@H](C1)[C@H]2Oc1cc(C(C)(C)N)cc(-c2ccc(F)cc2)n1` [Example 50, ((1R,5S,6s)-6-((4-(2-aminopropan-2-yl)-6-(4-fluorophenyl)pyridin-2-yl)oxy)-3-azabicyclo[3.1.0]hexan-3-yl)(3-(6-fluoropyridin-2-yl)-1-methyl-1H-pyrazol-5-yl)methanone], the EC50 with RSV-A2-GFP virus (setting [3]) was < 10 nM; in the assay on hMPV-GFP virus (setting [4]), 10 to 100 nM.

For the compound `Cc1cccc(-c2cc(C(=O)N3C[C@@H]4[C@H](C3)[C@H]4Oc3cc(C(C)(C)N)cc(-c4ccc(F)cc4)n3)n(C)n2)n1` [Example 51, ((1R,5S,6s)-6-((4-(2-aminopropan-2-yl)-6-(4-fluorophenyl)pyridin-2-yl)oxy)-3-azabicyclo[3.1.0]hexan-3-yl)(1-methyl-3-(6-methylpyridin-2-yl)-1H-pyrazol-5-yl)methanone], the EC50 is < 10 nM in the assay with RSV-A2-GFP virus (setting [1]) and > 100 nM in the assay on hMPV-GFP virus (setting [2]).

As to `Cn1nc(-c2ncccn2)cc1C(=O)N1C[C@@H]2[C@H](C1)[C@H]2Oc1cc(C(C)(C)N)cc(-c2ccc(F)cc2)n1` [Example 52, ((1R,5S,6s)-6-((4-(2-aminopropan-2-yl)-6-(4-fluorophenyl)pyridin-2-yl)oxy)-3-azabicyclo[3.1.0]hexan-3-yl)(1-methyl-3-(pyrimidin-2-yl)-1H-pyrazol-5-yl)methanone], the EC50 in the assay on RSV-A2-GFP virus (setting [3]) is < 10 nM; with hMPV-GFP virus (setting [4]), > 100 nM.

For the compound `Cn1nc(-c2ncccn2)c(Cl)c1C(=O)N1C[C@@H]2[C@H](C1)[C@H]2Oc1cc(C(C)(C)N)cc(-c2ccc(F)cc2)n1` [Example 53, ((1R,5S,6s)-6-((4-(2-aminopropan-2-yl)-6-(4-fluorophenyl)pyridin-2-yl)oxy)-3-azabicyclo[3.1.0]hexan-3-yl)(4-chloro-1-methyl-3-(pyrimidin-2-yl)-1H-pyrazol-5-yl)methanone], the EC50 in the assay on RSV-A2-GFP virus (setting [3]) was < 10 nM; in the assay with hMPV-GFP virus (setting [4]), > 100 nM.

With `Cn1nc(-c2ncccn2)c(F)c1C(=O)N1C[C@@H]2[C@H](C1)[C@H]2Oc1cc(C(C)(C)N)cc(-c2ccc(F)cc2)n1` [Example 54, ((1R,5S,6s)-6-((4-(2-aminopropan-2-yl)-6-(4-fluorophenyl)pyridin-2-yl)oxy)-3-azabicyclo[3.1.0]hexan-3-yl)(4-fluoro-1-methyl-3-(pyrimidin-2-yl)-1H-pyrazol-5-yl)methanone], the figures for the concentration giving a half-maximal response (EC50) with RSV-A2-GFP virus (setting [3]) and in the assay on hMPV-GFP virus (setting [4]) were < 10 nM and > 100 nM, respectively.

Source of the values: US12643882B2, “Inhibitors of human respiratory syncytial virus and metapneumovirus” (priority 2022, dated 2026).
